In patent US20170224654A1, “PHARMACEUTICAL COMPOSITIONS AND METHODS FOR COUNTERING CHEMOTHERAPY INDUCED CARDIOTOXICITY” (Stem Cell Theranostics, Inc., priority 2016, published 2017):

How the values were obtained:
[1] = biological target: T1, TOPOIIβ (Homo sapiens, UniProt Q02880); test: kDNA decatenation assay; assay type: biochemical
T1 construct: purchased Inspiralis

[2] = tested on: induced pluripotent stem cell-derived cardiomyocytes; test: Long term toxicity on electrophysiology (active electrodes, MEA); assay type: cell-based; details: various concentrations, at least 5 days
Description: Samples were either mock-treated with 0.1% DMSO, or treated with various concentrations of the indicated drug. Following treatment, the percentage of active electrodes in each sample was measured for at least 5 days. Percentage of active electrodes was quantified and graphed in a time course.

[3] = tested on: Human iPSC-derived cardiomyocytes; test: Cytotoxicity of MYR analogs to cardiomyocytes; details: for cytotoxicity / toxic effects to cardiomyocytes (in words): at or below 100 μM as stated
[4] = tested on: A549 cells (lung cancer); test: Cell viability with doxorubicin (CellTiter-Glo); assay type: cell-based; details: co-treated with increasing concentrations of doxorubicin, 72 hours
Description: A549 cells (lung cancer) were cultured for 1 day before performing experiments. […] XLFit was used for curve fitting.

[5] = tested on: cardiomyocytes derived from human induced pluripotent stem cells; test: Doxorubicin-induced mitochondrial toxicity (TMRM-negative cells), 48 hours; assay type: cell-based; details: 1 μM doxorubicin, KAE 17 μM, AMB 0.76 μM, MES 10 μM, NAC 50 μM, Dex 160 μM, VIT 115 μM
Description: Following treatment, the samples were incubated with a tetramethylrhodamine methyl ester (TMRM) dye to indicate mitochondrial health, and a second dye to identify cell nuclei.

[6] = tested on: TOPOII enzymes (TOPOIIα and TOPOIIβ); test: kDNA decatenation assay, TOPOIIα and TOPOIIβ jointly; assay type: biochemical; details: discussion of Table 1
Description: 200 ng of kinetoplast DNA (kDNA) was incubated with one enzymatic unit of TOPOIIα or TOPOIIβ enzyme (Inspiralis) and with various concentrations of MYR or DEX at 37° C. for 30 min. The reaction was then separated on 1% agarose gel for visualization of decatenated DNA (bottom band). The efficiency of catalytic inhibition was quantified by measuring the relative intensity of the band.

[7] = tested on: Doxorubicin treated human iPSC-derived cardiomyocytes; test: iPSC-CM protection of MYR analogs against doxorubicin; assay type: cell-based; details: discussion of Table 1
[8] = tested on: MDA-MB-231 breast cancer cells; test: Cell viability with doxorubicin (CellTiter-Glo); assay type: cell-based; details: co-treated with increasing concentrations of doxorubicin, 72 hours
[9] = biological target: T2, TOPOIIα (Homo sapiens, UniProt P11388); test: kDNA decatenation assay; assay type: biochemical
T2 construct: purchased Inspiralis
T2 sequence (P11388 whole entry): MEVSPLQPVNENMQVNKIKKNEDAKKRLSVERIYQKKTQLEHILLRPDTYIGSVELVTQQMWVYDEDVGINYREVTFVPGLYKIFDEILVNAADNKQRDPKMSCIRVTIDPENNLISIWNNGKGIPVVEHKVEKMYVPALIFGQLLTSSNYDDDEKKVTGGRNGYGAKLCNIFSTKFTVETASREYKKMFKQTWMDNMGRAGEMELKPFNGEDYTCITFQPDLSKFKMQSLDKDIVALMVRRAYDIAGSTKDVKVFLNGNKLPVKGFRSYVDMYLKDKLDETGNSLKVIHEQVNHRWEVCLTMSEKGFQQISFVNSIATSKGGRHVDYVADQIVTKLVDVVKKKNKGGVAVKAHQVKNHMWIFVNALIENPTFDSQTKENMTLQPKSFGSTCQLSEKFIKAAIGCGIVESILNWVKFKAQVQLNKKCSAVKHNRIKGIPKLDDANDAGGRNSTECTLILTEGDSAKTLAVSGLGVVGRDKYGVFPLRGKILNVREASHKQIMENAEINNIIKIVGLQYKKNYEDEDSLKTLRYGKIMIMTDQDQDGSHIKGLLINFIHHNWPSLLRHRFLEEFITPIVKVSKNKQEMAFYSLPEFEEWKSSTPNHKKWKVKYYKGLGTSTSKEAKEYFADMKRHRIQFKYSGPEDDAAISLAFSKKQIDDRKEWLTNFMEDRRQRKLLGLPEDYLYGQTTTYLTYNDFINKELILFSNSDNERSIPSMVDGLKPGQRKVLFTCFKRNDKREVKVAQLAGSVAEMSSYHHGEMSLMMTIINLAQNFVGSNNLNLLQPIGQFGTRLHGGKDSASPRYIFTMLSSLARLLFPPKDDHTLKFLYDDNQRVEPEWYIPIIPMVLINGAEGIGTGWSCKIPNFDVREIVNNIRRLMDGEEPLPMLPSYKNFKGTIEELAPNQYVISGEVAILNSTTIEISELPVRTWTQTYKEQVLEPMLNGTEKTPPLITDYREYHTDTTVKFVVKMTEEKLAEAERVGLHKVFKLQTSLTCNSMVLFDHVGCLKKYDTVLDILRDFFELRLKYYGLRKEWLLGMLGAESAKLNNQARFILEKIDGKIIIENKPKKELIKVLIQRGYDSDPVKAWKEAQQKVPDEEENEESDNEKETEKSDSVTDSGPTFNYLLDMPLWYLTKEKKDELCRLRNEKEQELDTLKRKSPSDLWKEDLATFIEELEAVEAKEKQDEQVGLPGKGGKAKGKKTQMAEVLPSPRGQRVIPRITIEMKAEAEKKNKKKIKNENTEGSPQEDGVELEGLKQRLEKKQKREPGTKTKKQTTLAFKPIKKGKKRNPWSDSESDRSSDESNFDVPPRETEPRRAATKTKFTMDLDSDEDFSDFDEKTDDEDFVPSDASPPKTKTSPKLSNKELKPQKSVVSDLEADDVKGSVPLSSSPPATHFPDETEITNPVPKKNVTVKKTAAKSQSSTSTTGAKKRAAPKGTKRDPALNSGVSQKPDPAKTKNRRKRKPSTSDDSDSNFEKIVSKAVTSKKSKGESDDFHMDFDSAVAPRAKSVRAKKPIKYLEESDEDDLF

[10] = tested on: induced pluripotent stem cell-derived cardiomyocytes; test: Acute toxicity on electrophysiology (MEA beat period, field potential duration); assay type: cell-based; details: lower drug concentration, at least 20 minutes
Description: Samples were either mock-treated with 0.1% DMSO, or treated with increasing concentrations of the indicated drug for at least 20 minutes. Cardiomyocytes were treated with the hERG potassium channel blocker E4031 as a control. Following treatment, the beat period and field potential duration (FPD) were measured in each sample using the MEA.

[11] = tested on: human induced pluripotent stem cell-derived cardiomyocytes; test: Electrophysiological activity with doxorubicin (active electrodes, MEA); assay type: cell-based; details: for decrease in the number of active electrodes: 24 hours
Description: Samples were either mock-treated with 0.1% DMSO, treated with 1 μM doxorubicin, or co-treated with 1 μM doxorubicin and various concentrations of vitexin (e.g., 11.6 μM, 37 μM, or 116 μM). Following treatment, the percentage of active electrodes in each sample was measured for 72 hours. Percentage of active electrodes was quantified and graphed in a time course (FIG. 28A). The average number of active electrodes per well was quantified and graphed at 30 hours after the treatment (FIG. 28B, n=6, standard deviation is shown as error bars).

[12] = tested on: patient; test: Patient treatment examples (echocardiogram / electrocardiogram); assay type: in vivo, human
Description: A patient, with a history of heart disease, is diagnosed with breast cancer. Due to an increased risk for heart failure, the patient is unable to receive the standard treatment regimen of doxorubicin, which is known to induce cardiotoxicity. Instead, the caregiver administers a co-formulation of doxorubicin (10 mg) and vitexin (100 mg). An echocardiogram is performed and blood flow rate is measured to determine if the therapy has a cardiotoxic effect in the patient.
A patient is diagnosed with liver cancer. […] The patient presents with a 20 ms QT prolongation. […] The patient is able to continue receiving treatment over several weeks after which a tissue biopsy is performed to confirm the liver cancer has been eradicated.
(§1) A patient is diagnosed with stage II lung cancer, and presents with bradycardia. Due to an increased risk for heart failure, the patient is unable to receive the standard treatment regimen of doxorubicin, which is known to affect cardiac contraction and induce bradycardia. Instead, the caregiver administers a co-formulation of doxorubicin (10 mg) and myricetin (100 mg). An electrocardiogram is used to monitor the patient's heart rate. […] The lung cancer is down-staged to stage 1, and the cancer is successfully removed with surgery.
as §1, with “myricetin (100 mg) 24 hours before administration” for “a co-formulation”, “(10” for “(10 mg) and myricetin (100”

[13] = tested on: cardiomyocytes derived from human induced pluripotent stem cells; test: Doxorubicin-induced apoptosis (TUNEL), 48 hours; assay type: cell-based; details: 1 μM doxorubicin, VIT 115 μM, Dex 160 μM, AMB 0.76 μM, NAC 50 μM, KAE 17 μM, MES 10 μM
Description: Following treatment, the samples were incubated with a TUNEL dye to indicate apoptosis-positive cells, and a second dye to identify cell nuclei.

[14] = tested on: human induced pluripotent stem cell-derived cardiomyocytes; test: Long-term mitochondrial health (TMRM), 7 days; assay type: cell-based; details: 1 μM doxorubicin alone or with dexrazoxane or vitexin
Description: Following treatment, the samples were incubated with a tetramethylrhodamine methyl ester (TMRM) dye to indicate mitochondrial health. […] Representative images are presented for each sample, wherein loss of TMRM signal represents mitochondrial toxicity.

T1 sequence (Q02880 whole entry): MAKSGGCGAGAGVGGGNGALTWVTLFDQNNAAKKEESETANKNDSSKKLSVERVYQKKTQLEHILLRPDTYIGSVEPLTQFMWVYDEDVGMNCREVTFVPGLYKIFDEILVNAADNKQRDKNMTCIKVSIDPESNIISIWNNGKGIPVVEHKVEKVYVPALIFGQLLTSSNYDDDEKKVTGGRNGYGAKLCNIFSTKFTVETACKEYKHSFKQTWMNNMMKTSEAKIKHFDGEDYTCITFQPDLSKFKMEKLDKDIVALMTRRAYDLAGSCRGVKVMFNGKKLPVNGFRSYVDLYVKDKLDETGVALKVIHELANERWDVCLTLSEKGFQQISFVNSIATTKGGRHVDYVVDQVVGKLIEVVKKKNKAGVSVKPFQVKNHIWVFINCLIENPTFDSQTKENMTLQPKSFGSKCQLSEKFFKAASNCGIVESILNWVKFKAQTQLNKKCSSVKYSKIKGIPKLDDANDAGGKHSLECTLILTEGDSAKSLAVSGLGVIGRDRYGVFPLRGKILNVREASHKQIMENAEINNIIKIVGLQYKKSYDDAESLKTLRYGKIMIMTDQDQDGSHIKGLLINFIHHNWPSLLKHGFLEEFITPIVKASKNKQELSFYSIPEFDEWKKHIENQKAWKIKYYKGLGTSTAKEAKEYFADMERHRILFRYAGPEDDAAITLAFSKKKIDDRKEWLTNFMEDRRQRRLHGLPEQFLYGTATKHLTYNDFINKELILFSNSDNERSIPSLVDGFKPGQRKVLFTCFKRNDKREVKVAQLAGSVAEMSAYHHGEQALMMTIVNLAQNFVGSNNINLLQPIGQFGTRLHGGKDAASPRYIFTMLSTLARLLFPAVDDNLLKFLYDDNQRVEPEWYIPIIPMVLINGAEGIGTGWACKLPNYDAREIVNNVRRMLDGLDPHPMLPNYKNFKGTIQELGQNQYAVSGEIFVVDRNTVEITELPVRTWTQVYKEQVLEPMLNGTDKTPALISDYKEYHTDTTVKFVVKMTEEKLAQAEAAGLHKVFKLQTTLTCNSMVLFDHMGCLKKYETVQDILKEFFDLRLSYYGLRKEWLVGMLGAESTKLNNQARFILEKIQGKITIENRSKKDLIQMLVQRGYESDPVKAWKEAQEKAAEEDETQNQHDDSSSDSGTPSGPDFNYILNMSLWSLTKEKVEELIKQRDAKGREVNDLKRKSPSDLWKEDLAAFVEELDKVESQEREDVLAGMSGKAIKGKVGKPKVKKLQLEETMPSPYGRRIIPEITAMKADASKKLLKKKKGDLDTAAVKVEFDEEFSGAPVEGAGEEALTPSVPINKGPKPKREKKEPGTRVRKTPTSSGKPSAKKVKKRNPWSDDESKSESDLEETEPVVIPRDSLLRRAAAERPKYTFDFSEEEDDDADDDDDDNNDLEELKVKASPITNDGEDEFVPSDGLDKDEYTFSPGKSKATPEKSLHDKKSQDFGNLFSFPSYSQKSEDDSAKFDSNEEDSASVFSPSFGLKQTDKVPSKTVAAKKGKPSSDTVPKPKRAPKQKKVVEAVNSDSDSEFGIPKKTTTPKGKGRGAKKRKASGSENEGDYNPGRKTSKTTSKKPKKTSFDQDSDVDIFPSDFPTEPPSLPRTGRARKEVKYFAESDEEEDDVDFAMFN

Compound | TOPOIIβ Inhibition [1] | number of active electrodes relative to the mock-treated sample (in words) [2] | Toxicity ([3]; 100 μM) | cytotoxicity / toxic effects to cardiomyocytes (in words) ([3]; listed as Kaempferol) | cytotoxicity / toxic effects to cardiomyocytes (in words) ([3]; listed as kaempferol) | percentage of cell death vs doxorubicin in the absence of a protective agent [4] | decrease in mitochondrial toxicity vs doxorubicin alone [5] | TOPOII (TOPOIIα and TOPOIIβ) inhibition (in words) [6] | cardioprotection (in words) [7] | percentage of cell death vs doxorubicin in the absence of a protective agent [8] | TOPOIIα Inhibition [9] | beat period or field potential duration, as compared to control samples [10] | decrease in the number of active electrodes ([11]; 1 μM doxorubicin and 11.6 μM vitexin) [%] | decrease in the number of active electrodes ([11]; 1 μM doxorubicin and 37 μM vitexin) [%] | decrease in the number of active electrodes ([11]; 1 μM doxorubicin and 116 μM vitexin) [%] | average number of active electrodes ([11]; 1 μM doxorubicin and 116 μM vitexin, 30 hours) | QT prolongation (in words) ([12]; doxorubicin (5 mg/mL) given with the protective agent) | cardiac dysfunction in the patient ([12]; protective agent 100 mg co-formulated with, or 24 hours before, doxorubicin 10 mg) | decrease in apoptosis vs doxorubicin alone [13] | mitochondrial toxicity / protection (TMRM-positive cells) [14]
O=c1c(O)c(-c2ccc(O)cc2)oc2cc(O)cc(O)c12 [Compound 7, 3,5,7,4′-tetrahydroxyflavone] | − | no observable decrease | − | without some level of cytotoxicity at 100 μM | did not show toxic effects below 100 μM | no significant difference | at least 60% | did not exhibit any inhibitory effect | moderate level of cardioprotection | no significant difference | − |  |  |  |  |  |  |  |  | 
O=c1cc(-c2ccc(O)cc2)oc2c([C@@H]3O[C@H](CO)[C@@H](O)[C@H](O)[C@H]3O)c(O)cc(O)c12 [vitexin] |  | no observable decrease |  |  |  | no significant difference |  |  |  | no significant difference |  | no appreciable difference | ~50 | ~25 | ~0 | about 10 active electrodes | no signs of QT prolongation | no indication of cardiac dysfunction | at least 60% | improved long term mitochondrial protection
